In US6407113B1, “Medicament for treatment of diastolic dysfunction” (Mitsubishi Chemical Corporation, priority 1998, dated 2002):

How the values were obtained:
[1] = target: T1, sarcoplasmic reticulum Ca^2+-ATPase (Canis lupus familiaris, UniProt O46674); test: Sarcoplasmic reticulum Ca2+-ATPase activity of myocardium collected after in vivo drug administration (Pi colorimetry); assay type: biochemical, dog
T1 construct: sarcoplasmic reticulum from both post-ischemic and non-ischemic regions of the left ventricle of dogs; from tissue; host or cells: dog left ventricle (LAD occluded 30 min, reperfused 30 min), sarcoplasmic reticulum fraction
T1 sequence (O46674 whole entry, the tested form may be a part): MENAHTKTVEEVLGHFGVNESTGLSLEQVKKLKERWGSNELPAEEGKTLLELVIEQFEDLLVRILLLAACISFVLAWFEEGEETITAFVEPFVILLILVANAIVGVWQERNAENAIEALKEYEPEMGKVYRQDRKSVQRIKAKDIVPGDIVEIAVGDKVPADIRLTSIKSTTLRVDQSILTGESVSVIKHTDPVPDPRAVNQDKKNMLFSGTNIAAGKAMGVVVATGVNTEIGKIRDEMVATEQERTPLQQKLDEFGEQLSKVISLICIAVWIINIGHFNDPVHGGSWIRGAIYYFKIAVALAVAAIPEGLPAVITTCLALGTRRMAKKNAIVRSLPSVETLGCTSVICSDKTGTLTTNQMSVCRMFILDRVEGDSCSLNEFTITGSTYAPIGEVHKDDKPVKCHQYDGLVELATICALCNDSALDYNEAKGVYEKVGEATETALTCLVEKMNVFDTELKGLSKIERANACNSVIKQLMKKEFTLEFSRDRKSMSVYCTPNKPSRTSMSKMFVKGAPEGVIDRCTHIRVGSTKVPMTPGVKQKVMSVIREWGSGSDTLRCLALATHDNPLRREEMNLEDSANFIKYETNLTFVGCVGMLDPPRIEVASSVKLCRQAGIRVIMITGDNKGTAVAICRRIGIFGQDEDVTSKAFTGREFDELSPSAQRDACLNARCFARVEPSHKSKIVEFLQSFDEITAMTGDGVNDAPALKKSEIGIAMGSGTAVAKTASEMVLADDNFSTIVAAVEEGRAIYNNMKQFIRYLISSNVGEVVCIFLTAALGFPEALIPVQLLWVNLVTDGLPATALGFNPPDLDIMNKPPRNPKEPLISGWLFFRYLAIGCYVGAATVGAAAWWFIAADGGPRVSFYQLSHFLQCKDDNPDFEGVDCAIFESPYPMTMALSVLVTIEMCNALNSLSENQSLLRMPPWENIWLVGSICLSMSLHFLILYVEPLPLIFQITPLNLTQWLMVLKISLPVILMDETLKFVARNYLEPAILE
Description: After hemodynamic stability is established following operation, the dissected portion of LAD was occluded for 30 minutes and then reperfused for 1 hour. At the same time, the cardiac function (%SS) in the above-described ischemic/reperfused region was continuously monitored through-out the protocol.
The animals were randomly grouped into two groups, one consisting of animals to be administered with the medicament of the present invention (Drug administration group; N=6) and the other of control group (N-6). The dogs of drug administration group were intravenously administered with the medicament of the present invention (3 μg/kg) into the right femoral vein 5 minutes before reperfusion, followed by continuous infusion at 30 μg/kg/hr. Dogs of the control group were administered with the equal amount of saline.
After 1-hour reperfusion, their hearts were isolated and the myocardium in post-ischemic region and non-ischemic region of the left ventricles were collected from which the fractions having sarcoplasmic reticulum Ca^2+-ATPase activity were extracted to be subjected to protein assay (Bradford method) and stored at −80° C. The defrozen fractions were used to determine Ca^2+-ATPase activity. The activity was determined by measuring the amount of the generated inorganic phosphate (Pi) by colorimetry using phosphor/molybdic acid and malachite green (μmoles Pi/mg protein/min).
Next, results obtained from the Ca^2+-ATPase activity assay of the sarcoplasmic reticulum collected from each region are shown in FIGS. 2 and 3.

[2] = target: T1, sarcoplasmic reticulum Ca^2+-ATPase; test: Direct effect in vitro on sarcoplasmic reticulum Ca2+-ATPase activity; assay type: biochemical, dog; details: preincubation 37° C. 5 min; for sarcoplasmic reticulum Ca^2+-ATPase activity, post-ischemic region, in vitro: control 0.045±0.005; for sarcoplasmic reticulum Ca^2+-ATPase activity, non-ischemic region, in vitro: control 0.057±0.003
Description: The Ca^2+-ATPase activity of the sarcoplasmic reticulum from both post-ischemic and non-ischemic regions of the left ventricle of dogs, in which LAD was occluded for 30 minutes followed by reperfusion for 30 minutes, was measured in the same manner as in Example 1. The direct effect of the medicament of the present invention on the sarcoplasmic reticulum was examined in vitro by determining the amount of inorganic phophorous generated during the reaction for 15 minutes, which was triggered by adding ATP to the reaction solution, with the preincubated medicament of the present invention at 37° C. for 5 minutes.
For each of post-ischemic region and non-ischemic region (N=6), three groups were tested; control group which was preincubated with H2O, groups with low level dosage (10^−7 M of the medicament of the present invention was administered), and group with high level dosage (10^−6 M of the medicament of the present invention was administered)

[3] = tested on: ischemic/reperfused myocardium; test: Regional cardiac function (%SS) in brief-ischemic/reperfused myocardium in dogs; assay type: in vivo; details: dog; 30 min LAD occlusion, 1 h reperfusion; 3 μg/kg i.v. 5 min before reperfusion then 30 μg/kg/hr infusion
Description: The chest of mongrel dogs (adult, male and female) was opened under anesthesia with pentobarbital (30 mg/kg, i.v.) and a portion of the left coronary anterior descending (LAD) was dissected. A catheter-tip-pressure transducer (Millar; MPC-500) was inserted from the left carotidartery into the left ventricle to determine the left ventricular pressure and its first differential value (dP/dt). A pair of crystal probes were mounted in the LAD region to determine changes in regional segment length. Diastolic segment length (EDL; threshold point of dP/dt) and systolic segment length (ESL; dP/dt(−) max point) were determined from the waveform of dP/dt, and the regional segment shortening (%SS) in the ischemic/reperfused myocardium was calculated as follows: %SS=(EDL−ESL)/EDL×100. After hemodynamic stability is established following operation, the dissected portion of LAD was occluded for 30 minutes and then reperfused for 1 hour. At the same time, the cardiac function (%SS) in the above-described ischemic/reperfused region was continuously monitored through-out the protocol. The animals were randomly grouped into two groups, one consisting of animals to be administered with the medicament of the present invention (Drug administration group; N=6) and the other of control group (N-6). […]

| sarcoplasmic reticulum Ca^2+-ATPase activity, post-ischemic region ([1]; Ca^2+ 10 μM, dog dosed in vivo 3 μg/kg i.v. + 30 μg/kg/hr, control group 0.070±0.004) [μmol Pi/mg min] | sarcoplasmic reticulum Ca^2+-ATPase activity, non-ischemic region ([1]; Ca^2+ 10 μM, dog dosed in vivo 3 μg/kg i.v. + 30 μg/kg/hr, control group 0.089±0.009) [μmol Pi/mg min] | sarcoplasmic reticulum Ca^2+-ATPase activity, post-ischemic region, in vitro ([2]; 10^−6 M (high concentration)) [μmol Pi/mg min] | sarcoplasmic reticulum Ca^2+-ATPase activity, non-ischemic region, in vitro ([2]; 10^−6 M (high level dosage)) [μmol Pi/mg min] | sarcoplasmic reticulum Ca^2+-ATPase activity, post-ischemic region, in vitro ([2]; 10^−7 M (low concentration)) [μmol Pi/mg min] | sarcoplasmic reticulum Ca^2+-ATPase activity, non-ischemic region, in vitro ([2]; 10^−7 M (low level dosage)) [μmol Pi/mg min] | Structure (SMILES) | regional cardiac function (%SS) in post-reperfusion region compared to control group [3] | inhibition of the ATPase activity of the sarcoplasmic reticulum fraction ([1]; 1 μM) |
| --- | --- | --- | --- | --- | --- | --- | --- | --- |
| 0.090±0.008 | 0.088±0.006 | 0.062±0.005 | 0.060±0.003 | 0.057±0.003 | 0.062±0.002 | Cc1ccc(N2CCNCC2)c(S(=O)(=O)O)c1 [medicament of the present invention, 2-(1-piperazinyl)-5-methylbenzenesulfonic acid derivative monohydrate] | significantly improved |  |
|  |  |  |  |  |  | C/C=C(/C)C(=O)O[C@H]1C(C)=C2[C@H]([C@@H]1OC(=O)CCCCCCC)[C@@](C)(OC(C)=O)C[C@H](OC(=O)CCC)[C@@]1(O)[C@H]2OC(=O)[C@@]1(C)O [Thapsigargin, reference compound] |  | completely inhibited |
